Read-outs that look alike come from different tables or passages of the source.
Legend:
Type in all cases: biochemical
[1] = target: p110β/p85α (Homo sapiens (Human), UniProt P42338); test: PI 3-Kinase (human) HTRF assay, p110β/p85α; conditions: read-out: PI3K β IC50
[2] = target: p110γ (Homo sapiens (Human), UniProt P48736); test: PI 3-Kinase (human) HTRF assay, p110γ; conditions: read-out: PI3K γ IC50
[3] = target: p110α/p85α (Homo sapiens (Human), UniProt P42336); test: PI 3-Kinase (human) HTRF assay, p110α/p85α; conditions: read-out: PI3K α IC50
Chain of p110α/p85α (P42336 whole entry): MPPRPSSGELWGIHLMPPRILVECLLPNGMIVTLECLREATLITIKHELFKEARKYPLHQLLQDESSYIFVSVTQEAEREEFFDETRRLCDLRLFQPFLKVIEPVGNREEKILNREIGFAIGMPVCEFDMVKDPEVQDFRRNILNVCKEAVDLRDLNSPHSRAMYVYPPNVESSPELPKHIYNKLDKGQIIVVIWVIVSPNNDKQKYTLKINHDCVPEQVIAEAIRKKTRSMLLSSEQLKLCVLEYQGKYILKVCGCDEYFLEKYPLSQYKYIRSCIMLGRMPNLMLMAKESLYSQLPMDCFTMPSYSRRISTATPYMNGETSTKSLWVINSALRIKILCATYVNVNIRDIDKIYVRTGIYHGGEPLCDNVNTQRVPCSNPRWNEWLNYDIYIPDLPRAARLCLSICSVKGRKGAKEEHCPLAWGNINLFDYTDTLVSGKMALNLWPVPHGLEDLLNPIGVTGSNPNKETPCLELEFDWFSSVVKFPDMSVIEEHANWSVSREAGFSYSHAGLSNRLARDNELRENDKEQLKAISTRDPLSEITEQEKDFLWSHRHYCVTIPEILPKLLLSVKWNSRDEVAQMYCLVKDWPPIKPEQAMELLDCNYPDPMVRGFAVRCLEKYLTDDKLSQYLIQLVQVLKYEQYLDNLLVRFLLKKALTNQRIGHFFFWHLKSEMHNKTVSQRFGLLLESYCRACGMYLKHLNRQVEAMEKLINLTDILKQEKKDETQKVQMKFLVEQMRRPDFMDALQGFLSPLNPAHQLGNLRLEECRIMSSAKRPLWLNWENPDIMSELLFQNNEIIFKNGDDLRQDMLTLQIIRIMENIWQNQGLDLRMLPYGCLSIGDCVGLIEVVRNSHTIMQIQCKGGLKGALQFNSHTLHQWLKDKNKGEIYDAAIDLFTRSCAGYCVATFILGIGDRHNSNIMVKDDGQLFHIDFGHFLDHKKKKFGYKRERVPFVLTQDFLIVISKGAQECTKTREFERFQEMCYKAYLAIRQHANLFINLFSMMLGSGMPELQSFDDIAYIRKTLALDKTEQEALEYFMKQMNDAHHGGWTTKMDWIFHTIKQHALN
Chain of p110α/p85α (P27986 whole entry partner): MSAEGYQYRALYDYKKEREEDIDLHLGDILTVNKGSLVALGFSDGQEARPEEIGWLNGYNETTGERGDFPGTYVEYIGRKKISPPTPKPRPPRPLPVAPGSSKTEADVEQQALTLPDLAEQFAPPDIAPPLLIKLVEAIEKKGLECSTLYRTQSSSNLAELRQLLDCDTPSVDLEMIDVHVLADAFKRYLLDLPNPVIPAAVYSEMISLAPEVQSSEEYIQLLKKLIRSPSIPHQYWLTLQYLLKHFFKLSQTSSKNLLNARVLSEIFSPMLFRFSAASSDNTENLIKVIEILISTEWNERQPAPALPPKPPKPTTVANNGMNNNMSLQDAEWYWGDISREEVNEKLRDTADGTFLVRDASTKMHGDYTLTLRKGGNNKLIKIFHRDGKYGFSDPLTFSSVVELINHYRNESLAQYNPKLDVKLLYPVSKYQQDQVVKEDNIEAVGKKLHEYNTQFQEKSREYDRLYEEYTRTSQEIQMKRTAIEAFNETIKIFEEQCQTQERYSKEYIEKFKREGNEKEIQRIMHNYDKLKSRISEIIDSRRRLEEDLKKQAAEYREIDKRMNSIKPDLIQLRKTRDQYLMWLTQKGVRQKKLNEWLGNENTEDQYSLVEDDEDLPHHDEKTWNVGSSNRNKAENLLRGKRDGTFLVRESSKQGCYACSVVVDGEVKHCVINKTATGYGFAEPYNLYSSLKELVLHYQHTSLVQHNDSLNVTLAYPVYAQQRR

Chain of p110β/p85α (P42338 whole entry): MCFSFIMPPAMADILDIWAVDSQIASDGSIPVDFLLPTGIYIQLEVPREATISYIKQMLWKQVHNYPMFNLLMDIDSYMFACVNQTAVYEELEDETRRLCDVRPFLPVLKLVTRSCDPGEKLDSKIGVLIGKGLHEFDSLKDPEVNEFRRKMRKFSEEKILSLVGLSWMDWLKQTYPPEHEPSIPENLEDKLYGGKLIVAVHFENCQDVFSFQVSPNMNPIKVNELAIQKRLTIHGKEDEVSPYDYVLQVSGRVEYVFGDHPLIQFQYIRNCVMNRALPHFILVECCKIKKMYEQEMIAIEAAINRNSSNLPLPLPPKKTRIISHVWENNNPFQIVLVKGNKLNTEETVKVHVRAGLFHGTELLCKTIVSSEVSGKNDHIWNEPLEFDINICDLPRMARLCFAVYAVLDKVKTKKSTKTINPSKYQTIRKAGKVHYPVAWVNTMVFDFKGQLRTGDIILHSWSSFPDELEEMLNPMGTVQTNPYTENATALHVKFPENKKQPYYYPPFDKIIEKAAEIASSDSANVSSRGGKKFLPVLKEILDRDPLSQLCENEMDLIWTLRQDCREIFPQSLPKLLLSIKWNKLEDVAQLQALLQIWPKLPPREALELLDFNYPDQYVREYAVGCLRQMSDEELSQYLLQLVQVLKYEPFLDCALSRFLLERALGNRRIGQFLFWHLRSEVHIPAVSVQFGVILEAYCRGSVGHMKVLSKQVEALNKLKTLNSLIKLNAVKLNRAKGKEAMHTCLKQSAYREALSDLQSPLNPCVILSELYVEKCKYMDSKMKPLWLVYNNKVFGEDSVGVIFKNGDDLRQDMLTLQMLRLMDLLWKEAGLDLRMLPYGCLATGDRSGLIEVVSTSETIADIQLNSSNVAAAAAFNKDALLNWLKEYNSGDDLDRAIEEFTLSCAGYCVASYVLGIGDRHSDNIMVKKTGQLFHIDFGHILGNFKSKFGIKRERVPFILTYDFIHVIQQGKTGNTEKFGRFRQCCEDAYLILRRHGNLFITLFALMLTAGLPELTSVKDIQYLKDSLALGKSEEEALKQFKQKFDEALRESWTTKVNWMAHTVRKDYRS
Chain of p110β/p85α (P27986 whole entry partner): as the sequence (P27986 whole entry partner) above
Chain of p110γ (P48736 whole entry): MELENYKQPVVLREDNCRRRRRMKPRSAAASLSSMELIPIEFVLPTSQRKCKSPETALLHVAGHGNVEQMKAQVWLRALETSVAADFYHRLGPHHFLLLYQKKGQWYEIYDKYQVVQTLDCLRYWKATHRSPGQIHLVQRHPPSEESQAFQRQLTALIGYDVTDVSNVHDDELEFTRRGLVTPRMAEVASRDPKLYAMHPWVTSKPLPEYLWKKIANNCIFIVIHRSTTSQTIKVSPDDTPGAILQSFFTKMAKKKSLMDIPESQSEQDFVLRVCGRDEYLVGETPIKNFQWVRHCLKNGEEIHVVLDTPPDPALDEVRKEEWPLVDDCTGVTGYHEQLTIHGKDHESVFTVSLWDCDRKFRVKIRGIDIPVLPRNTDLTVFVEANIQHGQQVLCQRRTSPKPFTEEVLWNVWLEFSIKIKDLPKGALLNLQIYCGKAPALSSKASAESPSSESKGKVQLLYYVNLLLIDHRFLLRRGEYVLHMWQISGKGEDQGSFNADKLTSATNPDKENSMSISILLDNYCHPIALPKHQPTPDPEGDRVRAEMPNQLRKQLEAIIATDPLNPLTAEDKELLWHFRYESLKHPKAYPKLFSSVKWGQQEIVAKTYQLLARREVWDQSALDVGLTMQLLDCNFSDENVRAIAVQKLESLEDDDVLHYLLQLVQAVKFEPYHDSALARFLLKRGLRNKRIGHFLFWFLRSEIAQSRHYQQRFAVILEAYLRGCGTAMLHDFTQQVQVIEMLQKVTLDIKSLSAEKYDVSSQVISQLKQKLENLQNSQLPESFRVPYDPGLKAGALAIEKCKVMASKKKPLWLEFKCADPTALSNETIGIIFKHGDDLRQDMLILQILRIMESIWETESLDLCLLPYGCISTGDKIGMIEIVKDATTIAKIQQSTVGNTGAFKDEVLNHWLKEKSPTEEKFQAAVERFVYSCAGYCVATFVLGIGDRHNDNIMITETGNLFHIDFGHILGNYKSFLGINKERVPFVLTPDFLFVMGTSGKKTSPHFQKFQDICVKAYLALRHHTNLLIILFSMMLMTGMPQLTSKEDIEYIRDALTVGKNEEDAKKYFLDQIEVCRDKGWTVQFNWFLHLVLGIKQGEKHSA

Structure (SMILES) | IC50 [1] | IC50 [2] | IC50 [3] | IC50 ([1]; in vitro) | IC50 ([3]; in vitro) | IC50 ([2]; in vitro)
Nc1nc2cc(-c3ccc4ncc(C(=O)N5CCNCC5)n4c3)ccc2o1 [compound 111] | < 10000 nM |  | < 100 nM |  |  | 
Nc1nc2cc(-c3ccc4ncc(C(=O)N5CCOCC5)n4c3)ccc2s1 [compound 126] | < 10000 nM | < 1000 nM | < 1000 nM |  |  | 
CN1CCCN(C(=O)c2cnc3ccc(-c4ccc5oc(N)nc5c4)cn23)CC1 [compound 140] | < 10000 nM |  | < 1000 nM |  |  | 
CN1CCN(C(=O)c2cnc3ccc(-c4ccc5sc(N)nc5c4)cn23)CC1 [compound 144] | < 10000 nM |  | < 1000 nM |  |  | 
CN1CCN(C(=O)c2cnc3ccc(-c4ccc5nc(N)oc5c4)cn23)CC1 [compound 145] | < 10000 nM | < 10000 nM | < 1000 nM |  |  | 
CN1CCN(C(=O)c2cnc3ccc(-c4ccc5nc(N)sc5c4)cn23)CC1 [compound 146] | < 10000 nM |  | < 10000 nM |  |  | 
CN(CCN1CCOCC1)c1cnc2ccc(-c3ccc4oc(N)nc4c3)cc2n1 [compound 166] | < 10000 nM | < 10000 nM | < 1000 nM |  |  | 
Nc1nc2cc(-c3ccc4ncc(-c5ccccn5)nc4c3)ccc2o1 [compound 195] | < 10000 nM | < 100 nM | < 1000 nM |  |  | 
Nc1nc2cc(-c3ccc4ncc(C(=O)N5CCCCC5)n4c3)ccc2o1 [compound 196] | < 10000 nM | < 10000 nM | < 1000 nM |  |  | 
Nc1nc2cc(-c3ccc4ncc(C(=O)N5CCC(N)CC5)n4c3)ccc2o1 [compound 204] |  |  |  | < 1000 nM | < 100 nM | 
Nc1nc2cc(-c3ccc4nnc(-c5ccncc5)n4c3)ccc2o1 [compound 229] |  |  |  | < 1000 nM | < 1000 nM | < 10000 nM
CC(=O)Nc1nc2ccc(-c3ccc4nc(N)oc4c3)cc2s1 [compound 242] |  |  |  | < 100 nM | < 100 nM | < 100 nM
Nc1nc2ccc(-c3ccc4nc(N)sc4c3)cc2o1 [compound 243] |  |  |  | < 100 nM | < 1000 nM | < 100 nM
Nc1cn2cc(-c3ccc4nc(N)oc4c3)ccc2n1 [compound 247] |  |  |  | < 10000 nM |  | < 10000 nM

Other lines, results leading:

IC50 [1] | IC50 [2] | IC50 [3] | IC50 ([1]; in vitro) | IC50 ([3]; in vitro) | IC50 ([2]; in vitro) | Structure (SMILES)
< 10000 nM | < 1000 nM | < 1000 nM |  |  |  | Nc1ncc2cc(-c3ccc4nccc(-c5ccncc5)c4c3)ccc2n1 [compound 9]
< 1000 nM | < 10000 nM | < 1000 nM |  |  |  | Nc1nc2cc(-c3ccc4ncc(N5CCOCC5)n4n3)ccc2o1 [compound 57]
< 10000 nM |  | < 1000 nM |  |  |  | CCN1CCC(n2cnc3ccc(-c4ccc5oc(N)nc5c4)cc3c2=O)CC1 [compound 73]
< 10000 nM | < 10000 nM | < 100 nM |  |  |  | Nc1nc2cc(-c3ccc4ncn(C5CCNCC5)c(=O)c4c3)ccc2o1 [compound 75]
< 10000 nM | < 1000 nM | < 1000 nM |  |  |  | Nc1nc2cc(-c3ccc4ncc(C(=O)N5CCOCC5)n4n3)ccc2o1 [compound 105]
< 100 nM | < 10000 nM | < 1000 nM |  |  |  | CN1CCN(c2cnc3ccc(-c4ccc5nc(N)oc5c4)cc3n2)CC1 [compound 118]
< 1000 nM | < 1000 nM | < 1000 nM |  |  |  | Nc1nc2ccc(-c3ccc4ncc(C(=O)N5CCOCC5)n4c3)cc2o1 [compound 124]
< 100 nM | < 10000 nM | < 1000 nM |  |  |  | CN1CCN(c2cnc3ccc(-c4ccc5sc(N)nc5c4)cc3n2)CC1 [compound 127]
< 1000 nM | < 10000 nM | < 1000 nM |  |  |  | CN1CCCN(c2cnc3ccc(-c4ccc5oc(N)nc5c4)cc3n2)CC1 [compound 136]
< 1000 nM |  | < 1000 nM |  |  |  | CC1CN(C(=O)c2cnc3ccc(-c4ccc5oc(N)nc5c4)cn23)CCN1 (stereo not shown) [compound 164]

Source: US11547697B2, “Heterocyclic compounds and uses thereof” (MILLENNIUM PHARMACEUTICALS, INC., priority 2009, dated 2023)
